Experimental data reported in patent publication US10265286B2, “Sequelae of cardiopulmonary bypass-induced pulmonary injury” (Vanderbilt University, priority 2016, dated 2019).

Test system: human vascular endothelial cells
Experiment: Nitric oxide production by cultured human vascular endothelial cells (FIG. 23)
Assay type: cell-based
Experimental: These agents were administered to cultured human vascular endothelial cells stimulated with acetylcholine. Measurement of nitric oxide was through a Seiver's system of nitrate/nitrites.

Compound: N=C(N)NCCC[C@H](N)C(=O)O [arginine]
- NO production (applied directly to endothelial cell, very high concentrations (10 mM)): little sign of increased NO production
- production of nitric oxide (cells stimulated with acetylcholine, nitrate/nitrites by Seiver's system): no effect on the production of nitric oxide
